The values below come from ChEMBL document CHEMBL1201862, “PubChem BioAssay data set” (2004).

Test in all cases: NCI-60 cell line screen, 48 h
Assay [1] has as its system UO-31.
For assay [2], the system named is SW-620.
Assay [3] has as its system SF-268.
The subject of assay [4] is K562.
The test system of assay [5] is TK-10.
The test system of assay [6] is SK-MEL-5.
The subject of assay [7] is HT-29.
Assay [8] relates to SNB-75.
Assay [9] relates to OVCAR-8.
For assay [10], the system named is OVCAR-4.
Assay [11] has as its system RPMI-8226.
The subject of assay [12] is SNB-19.
Assay [13] deals with M14.
In assay [14] the test system is OVCAR-3.
In assay [15] the test system is CCRF-CEM.
In assay [16] the test system is LOX IMVI.
Assay [17] has as its system SK-OV-3.
Assay [18] deals with SR.

Structures are written as SMILES. “And” between values parts separate entries of the source, which are not always exact repeats. Identical values can stand only once.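 Cultured in 96-well plates, cells were exposed to test compound for 48 hours across five concentrations. GI50 marks 50% less growth.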 The source made the active and inactive calls. Rule as the data show it: active = GI50 up to about 1.1 µM and inactive = higher.

Consider `CC(=O)Nc1ccc(-c2nnc(SCC(=O)Nc3ccc(Cl)cc3)o2)cc1`, for which the GI50 is 14.4 µM (inactive) in [1]; 6.21 µM (inactive) in assay [2]; 4.53 µM (inactive) in [3]; 5.83 µM (inactive) in assay [4]; 18.4 µM (inactive) in [5]; 5.69 µM (inactive) in assay [6]. In addition, the GI50 was 10.6 µM (inactive) in assay [7]; 21.5 µM (inactive) in assay [8]; 12.5 µM (inactive) in assay [9]; 13.1 µM (inactive) in assay [10]; 6.89 µM (inactive) in assay [11]; 20 µM (inactive) in [12]. Further, the GI50 in assay [13] was 14.5 µM (inactive); in [14], 9.06 µM (inactive); in [15], 3.5 µM (inactive); in assay [16] it was 5.33 µM (inactive); in assay [17], 16.4 µM (inactive).
For the compound `CC(=O)O[C@H]1CC[C@@]2(C)C(=CC[C@@H]3C2CC[C@]2(C)Nc4nc5ccccc5cc4CC32)C1` (stereo partly drawn), the GI50 in [1] is 4.92 µM (inactive); in assay [2], 2.59 µM (inactive); in [3] it was 4.2 µM (inactive); in [4], 3.21 µM (inactive); in assay [5], 5.31 µM (inactive); in assay [6], 4.1 µM (inactive). Further, the GI50 is 1.82 µM (inactive) in assay [7]; 2.65 µM (inactive) in assay [8]; 3.13 µM (inactive) in assay [9]; 8.53 µM (inactive) in assay [10]; 8.65 µM (inactive) in assay [11]; 2.97 µM (inactive) in assay [12]. The GI50 in [13] was 2.19 µM (inactive); in [14] it was 2.5 µM (inactive); in assay [15], 3.54 µM (inactive); in assay [17], 2.82 µM (inactive).
For the compound `CC(C)(c1ccccc1)c1ccc(Oc2ccc3c(c2)-c2nc-3nc3[nH]c(nc4nc(nc5[nH]c(n2)c2ccc(Oc6ccc(C(C)(C)c7ccccc7)cc6)cc52)-c2cc(Oc5ccc(C(C)(C)c6ccccc6)cc5)ccc2-4)c2ccc(Oc4ccc(C(C)(C)c5ccccc5)cc4)cc32)cc1`, the GI50 is > 100 µM (inactive) in assay [1]; > 100 µM (inactive) in [2]; > 100 µM (inactive) in assay [4]; 80.2 µM (inactive) in assay [5]; > 100 µM (inactive) in assay [6]; > 100 µM (inactive) in [7]. In addition, the GI50 in assay [8] was 27.8 µM (inactive); in [9], > 100 µM (inactive); in assay [11] it was > 100 µM (inactive); in assay [12], 92 µM (inactive); in assay [13], > 100 µM (inactive); in assay [15], > 100 µM (inactive). The GI50 in assay [16] and in assay [17] was > 100 µM (inactive) throughout.
Regarding `COc1c2c(c(OC)c3c(=O)cc(C/C(=N/NC(=O)C[n+]4ccccc4)C(=O)Nc4cc(C)ccc4C)oc13)OCO2`, the GI50 in assay [1], in assay [2], in [3], in [4], in assay [5] and in assay [6] was > 100 µM (inactive) in each case. Also, the GI50 in assay [7], in assay [8], in assay [9], in [10], in [11] and in assay [12] was > 100 µM (inactive) throughout. In addition, the GI50 in assay [13], in assay [14], in assay [15], in assay [16] and in assay [17] was > 100 µM (inactive) throughout.
`Cc1nc2c(n1CCN(C)C)C(=O)c1ccccc1C2=O`: the GI50 in [1] was 21 µM (inactive); in [2] it was 15.2 µM (inactive); in assay [3], 22 µM (inactive); in assay [4], 18.8 µM (inactive); in assay [5], 38.8 µM (inactive); in [6], 7.45 µM (inactive). Further, the GI50 in assay [7] was 10.4 µM (inactive); in assay [8], 33.1 µM (inactive); in assay [9] it was 17.2 µM (inactive); in assay [10], 15.6 µM (inactive); in assay [18], 11.7 µM (inactive); in assay [12], 27.7 µM (inactive). Besides, the GI50 in assay [13] is 11.8 µM (inactive); in assay [14], 7.03 µM (inactive); in assay [15], 17.7 µM (inactive); in [16], 14.9 µM (inactive); in [17], 45.8 µM (inactive).
On to `CCOc1ccccc1NC(=O)C(=O)c1c(O)c2ccc(O)cc2oc1=O`, for which the GI50 in [1], in assay [2], in assay [3], in assay [4], in [5] and in assay [6] was > 100 µM (inactive) throughout. Moreover, the GI50 in [7], in assay [8], in assay [9], in assay [10], in [18] and in assay [12] was > 100 µM (inactive) in each case. The GI50 in assay [13], in [14], in assay [15], in [16] and in assay [17] was > 100 µM (inactive) each time.
Consider `COc1c(CC(C)=O)ccc2c1C(=O)c1ccc(C=O)c(OC(C)=O)c1C2=O`, for which the GI50 in assay [1] was 20.4 µM (inactive); in [2], 12.6 µM (inactive); in assay [3], 4.38 µM (inactive); in [4], 11.6 µM (inactive); in [5], 27.5 µM (inactive); in [6], 14.1 µM (inactive). For the same compound, the GI50 in assay [7] was 13.9 µM (inactive); in [8], 20.5 µM (inactive); in assay [9], 9.51 µM (inactive); in assay [10], 14.6 µM (inactive); in assay [11] it was 8.45 µM (inactive); in assay [12], 19.9 µM (inactive). Further, the GI50 in [13] was 12 µM (inactive); in assay [14], 13.1 µM (inactive); in assay [15], 3.23 µM (inactive); in assay [16], 14.3 µM (inactive); in assay [17], 55.5 µM (inactive).
As to `Cc1ccc(S(=O)(=O)N/N=C/c2oc(-c3ccncc3)c(-c3ccncc3)c2[N+](=O)[O-])cc1`, the GI50 in assay [1], in assay [2], in assay [3], in assay [4], in assay [5] and in assay [6] was > 100 µM (inactive) throughout. Besides, the GI50 in assay [7], in assay [8], in assay [9], in [10], in [18] and in [12] was > 100 µM (inactive) throughout. The GI50 in [13], in [14], in [15], in assay [16] and in [17] was > 100 µM (inactive) throughout.
`CCN1C(=O)C(=CN)C(=O)N(CC)C1=O`: the GI50 in assay [1] was 58.2 µM (inactive); in [2], > 100 µM (inactive); in [3], > 100 µM (inactive); in assay [4] it was > 100 µM (inactive); in assay [5], 44.5 µM (inactive); in assay [6], > 100 µM (inactive). In addition, the GI50 in [7] was > 100 µM (inactive); in assay [8], 14.7 µM (inactive); in [9], > 100 µM (inactive); in assay [10] it was > 100 µM (inactive); in assay [12], > 100 µM (inactive); in assay [13], > 100 µM (inactive). Further, the GI50 in [14], in assay [15], in assay [16] and in assay [17] was > 100 µM (inactive) throughout.
On to `C=CCO[C@H]1CC[C@@]2(C)C(CC[C@]3(C)C2CC=C2[C@@H]4[C@@H](C)C(C)CC[C@]4(C(=O)O)CCC23C)C1(C)C` (stereo partly drawn), for which the GI50 in [1] is 15 µM (inactive); in [2] it was 18.5 µM (inactive); in assay [3], 19.2 µM (inactive); in [4] it was 14.3 µM (inactive); in [5], 18.2 µM (inactive); in [6], 16.5 µM (inactive). The GI50 in assay [7] is 16.3 µM (inactive); in assay [8] it was 15.6 µM (inactive); in [9], 18.4 µM (inactive); in assay [10] it was 17.6 µM (inactive); in assay [18], 13.8 µM (inactive); in assay [12], 17.1 µM (inactive). For the same compound, the GI50 was 17.5 µM (inactive) in [13]; 15.7 µM (inactive) in [14]; 13.2 µM (inactive) in assay [15]; 13.5 µM (inactive) in assay [16]; 16.9 µM (inactive) in [17].
For `COc1cccc2c1C(=O)c1c(O)c3c(c(O)c1C2=O)C[C@@](O)(C(=O)CO)C[C@@H]3OC1CC(N)C(O)C(C)O1` (stereo partly drawn), the GI50 in assay [2] is 79.4 nM (active) and 122 nM (active); in assay [5], 726 nM (active) and 404 nM (active); in [6], 114 nM (active) and 72.8 nM (active); in assay [7] it was 312 nM (active) and 187 nM (active); in [9] it was 200 nM (active) and 136 nM (active); in assay [10] it was 1.16 µM (inactive) and 671 nM (active). In addition, the GI50 in assay [11] was 55.3 nM (active) and 43.9 nM (active); in assay [18], 10 nM (active) and 12.2 nM (active); in assay [12] it was 54.3 nM (active) and 92 nM (active); in [14] it was 394 nM (active) and 474 nM (active); in assay [15] it was 34.8 nM (active) and 44.9 nM (active); in assay [16], 52.1 nM (active) and 44.4 nM (active). Besides, the GI50 in [17] is 0.414 µM (active).
